Where two headings read alike, the source gives them in different places. Where no end group is shown, it is not given here.
Columns and labels:
Format in all cases: cell-based
[1] = test system: Pseudomonas aeruginosa (Pa, ATCC 27853)
Procedure: (§1) The peptides were screened for antibacterial activity against two strains of Gram-positive and two strains of Gram-negative bacteria; Corynebacterium glutamicum (Cg, ATCC 13032), Staphylococcus aureus (Sa, ATCC 9144), Pseudomonas aeruginosa (Pa, ATCC 27853) and Escherichia coli (Ec, ATCC 25922).
(§2) Cultures stored at −80° C. in glycerol were transferred to Müller-Hinton plates (MH, Difco, Lawrence, Kans., USA) and incubated for 24 h at 35° C. A few colonies of each bacterial strain were transferred to 5 ml liquid MH medium and left shaking at room temperature overnight at 600 rpm. Cultures of actively growing bacteria (20 μl) were inoculated in 5 ml MH medium and left shaking for 2 h at room temperature. The antibacterial assays were performed as previously described by Sperstad, S. V., et al. ((2009) Mol. Immunol. 46, 2604-2612) with the following exception: bacterial cultures were diluted with medium to 2.5-3×10^4 bacteria/ml concentrations. An aliquot of 50 μl (1250-1500 bacterial cells) was added to each well in 96-well Nunclon™ microtiter plates (Nagle Nunc Int., Denmark) preloaded with peptide solution (50 μl).
(§3) The microtiter plates were incubated for 24 h at 35° C. with optical density recorded every hour using an Envision 2103 multilabel reader, controlled by a Wallac Envision manager (PerkinElmer, Conn., USA). Minimum inhibitory concentration (MIC) was defined as a sample showing complete inhibition (as measured by optical density at 595 nm) compared to the negative (growth) controls, consisting of bacteria and water. Oxytetracycline (20 μM) served as a positive (inhibition) control.
(§4) The synthetic peptides were tested for antibacterial activity in concentrations ranging from 200 to 0.1 μM in two-fold dilutions. All tests were performed in triplicates.

[2] = test system: Staphylococcus aureus (Sa, ATCC 9144)
Procedure: as §1, §2, §3, §4

[3] = test system: Corynebacterium glutamicum (Cg, ATCC 13032)
Procedure: as §1, §2, §3, §4

[4] = test system: Escherichia coli (Ec, ATCC 25922)
Procedure: as §1, §2, §3, §4

[5] = test system: A. pullulans, Rhodotorula sp. and C. albicans
Procedure: (§5) The synthetic peptides were also screened for antifungal activity against Candida albicans (ATCC 10231), Aureobasidium pullulans and Rhodotorula sp. (the last two were obtained from Professor Arne Tronsmo, The Norwegian University of Life Sciences, As, Norway). The antifungal assay was performed as previously described (Sperstad, S. V., et al. (2009) Dev. Comp. Immunol. 33, 583-591). Briefly, fungal spores were dissolved in potato dextrose broth (Difco, Lawrence, Kans., USA) to a concentration of 4×10^5 spores/ml. The spores (50 μl) were inoculated on 96-well Nunclon™ microtiter plates containing the synthetic peptides (50 μl) dissolved in MQ-H2O. […] The negative (growth) control consisted of medium and fungal solution. The peptides were tested for activity in concentrations ranging from 100 to 0.1 μM in two-fold serial dilutions. All tests were performed in triplicates.

human red blood cells = assay: Haemolytic assay; details: for Haemolysis (%) 25 μM: peptide 25 μM; for Haemolysis (%) 25 μM / Haemolysis (%) 200 μM: human red blood cells, one hour at 37° C.; for Haemolysis (%) 200 μM: peptide 200 μM
Procedure: Selected synthesised peptide analogues were also screened for haemolytic activity using human red blood cells as described previously (Sperstad, S. V., et al. (2009) Dev. Comp. Immunol. 33, 583-591). The assay was performed on 96-well U-shaped microtiter plates (Nagle Nunc) with 50 μl peptide sample, 40 μl phosphate-buffered saline (PBS) and 10 μl red blood cells. After one hour of incubation at 37° C. in a shaker, the plate was centrifuged at 200 g for 5 min and the supernatants (60 μl) were carefully transferred to a new flat-bottomed polycarbonate microtiter plate (Nagle Nunc) and the release of haemoglobin (absorbance at 550 nm) was measured on a Synergy H1 multimode reader (BioTek, Vt., USA). Cell suspension added 0.05% Triton X-100 (Sigma-Aldrich, Mo., USA) in PBS served as positive (100% haemolysis) control and cell suspension added PBS served as negative (0% haemolysis, blank) control. The percent haemolysis was calculated using the formula [(Asample-Abaseline)/(Atriton-Abaseline)]×100. The cytotoxic peptide melittin (Sigma-Aldrich) was used as a positive control peptide and for comparison. The experiment was performed in triplicates with peptide concentrations ranging from 200 μM to 1.56 μM in two-fold dilutions.

Rhodotorula sp. = details: 24 h
Procedure: as §5

[6] = test system: Candida albicans (ATCC 10231); details: ATCC 10231, 24 h
Procedure: as §5

Aureobasidium pullulans = details: 24 h
Procedure: as §5

Substance | MIC (μM) Pa ([1]; ATCC 27853) [µM] | MIC (μM) Pa ([1]; ATCC 27853, 24 h) [µM] | MIC (μM) Sa ([2]; ATCC 9144) [µM] | MIC (μM) Sa ([2]; ATCC 9144, 24 h) [µM] | MIC (μM) Cg ([3]; ATCC 13032) [µM] | MIC (μM) Ec ([4]; ATCC 25922) [µM] | MIC (μM) Ec ([4]; ATCC 25922, 24 h) [µM] | antifungal MICs (range over the three fungi) [5] [µM] | haemolytic activity (human red blood cells; at concentrations closer to the MIC-values) | Haemolysis (%) 25 μM (human red blood cells) [%] | Haemolysis (%) 200 μM (human red blood cells) [%] | Haemolysis (%) 200 μM (human red blood cells; listed as lead peptide) [%] | MIC (μM) Cg ([3]; ATCC 13032, 24 h) [µM] | MIC (μM) Rhodotorula sp. (Rhodotorula sp.) [µM] | MIC (μM) C. albicans [6] [µM] | MIC (μM) A. pullulans (Aureobasidium pullulans) [µM]
GWWRRTVAKVRK-NH2 [HC(1-12)A8K12, GWWRRTVAKVRK-NH2] | 6.3 | 3.1 | 6.3 | 25 | 0.4 | 6.3 | 6.3 | 1.6 to 6.3 | negligible | 2.4 | 25.1 | 25 | – | – | – | –
GWWRRTVDKVRNAGRK [HC(1-16), GWWRRTVDKVRNAGRK] | – | 12.5 | – | 200 | – | – | 6.3 | – | – | 0.0 | 0.0 | – | 0.8 | 25 | 100 | 50
GWWRATVAKVRK-NH2 [Peptide R5A, GWWRATVAKVRK-NH2] | – | 25 | – | 100 | – | – | 6.3 | – | – | 0.0 | 0.0 | – | 0.8 | 12.5 | 25 | 25
